From PubChem BioAssay (NCI)
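A five-concentration, 48-hour dose response in 96-well plates underlies each endpoint, interpolated linearly between surrounding concentrations. TGI: concentration producing complete growth inhibition.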

Columns and labels:
Experiment in all cases: DTP human tumour cell line panel, 48 h
[1] = test system: RPMI-8226 leukemia
[2] = test system: KM12 colon
[3] = test system: SF-539 CNS
[4] = test system: HOP-92 NSCLC
[5] = test system: HOP-18 NSCLC
[6] = test system: SN12C renal
[7] = test system: NCI-H522 lung
[8] = test system: OVCAR-3 ovarian
[9] = test system: OVCAR-4 ovarian
[10] = test system: SK-MEL-5 melanoma
[11] = test system: NCI-H460 lung
[12] = test system: 786-0 renal
[13] = test system: XF 498 CNS
[14] = test system: SK-MEL-2 melanoma
[15] = test system: RXF 393 renal
[16] = test system: HCC-2998 colon
[17] = test system: SW-620 colon
[18] = test system: TK-10 renal
[19] = test system: DMS 114 small cell lung
[20] = test system: CAKI-1 renal
[21] = test system: HT29 colon
[22] = test system: SK-MEL-28 melanoma
[23] = test system: LOX IMVI melanoma
[24] = test system: SNB-19 CNS
[25] = test system: DLD-1 colon
[26] = test system: K-562 leukemia
[27] = test system: NCI-H23 lung
[28] = test system: SF-295 CNS
[29] = test system: RXF-631 renal
[30] = test system: EKVX NSCLC
[31] = test system: ACHN renal
[32] = test system: HL-60(TB) leukemia
[33] = test system: LXFL 529 NSCLC
[34] = test system: OVCAR-5 ovarian
[35] = test system: HOP-62 NSCLC
[36] = test system: OVCAR-8 ovarian
[37] = test system: UO-31 renal
[38] = test system: HCT-116 colon
[39] = test system: M19-MEL melanoma
[40] = test system: MALME-3M melanoma
[41] = test system: SK-OV-3 ovarian
[42] = test system: M14 melanoma
[43] = test system: UACC-257 melanoma
[44] = test system: SNB-78 CNS
[45] = test system: CCRF-CEM leukemia
[46] = test system: MOLT-4 leukemia
[47] = test system: A549 NSCLC
[48] = test system: SF-268 CNS
[49] = test system: NCI-H226 lung
[50] = test system: COLO 205 colon
[51] = test system: IGROV1 ovarian
[52] = test system: UACC-62 melanoma
[53] = test system: U251 CNS
[54] = test system: HCT-15 colon

Measured: TGI

CCOC(=O)C(=O)Nc1cccc(Cl)c1C
> 100 µM: all assays above
